# Measurements taken from patent US20250144067A1, “PERSONALIZED STARVATION THERAPY FOR CANCER” (Faeth Therapeutics, Inc., priority 2021, published 2025).
# Where a name gives a salt, the structure may show the parent alone. Read-outs that look alike come from different tables or passages of the source.
# How the values were obtained:
# [1] = system: NCI-H292 lung cancer cells; assay: FDA drug screening, complete media vs cholesterol-free media without statin (TABLE 1); format: cell-based, human
# [2] = system: NCI-H292 lung cancer cells; assay: FDA drug screening, complete media vs cholesterol-free media with simvastatin (TABLE 2); format: cell-based, human
# [3] = Complete minus Cholesterol-free, greater than 0 enhanced anti-cancer activity, about 0 neutral, below 0 antagonists
# [4] = NCI-H292 cells in cholesterol-free media without statin
# [5] = NCI-H292 cells in complete media
# [6] = NCI-H292 cells, FDA drug library screen, cholesterol-free media with simvastatin 0.04 μM
# [7] = NCI-H292 cells, FDA drug library screen, complete media
# [8] = complete media minus cholesterol-free media + simvastatin, >0 enhanced anti-cancer activity, about 0 neutral, <0 antagonist
# [9] = Complete minus Cholesterol-free, greater than 0 enhanced anti-cancer activity, about 0 neutral, below 0 antagonist
# [10] = NCI-H292 cells, FDA drug library screen, cholesterol-free media without statin
# [11] = NCI-H292 cells, drug in cholesterol-free media with simvastatin 0.04 μM
# [12] = NCI-H292 cells, drug in complete media
# [13] = complete media vs cholesterol-free media + simvastatin (0.04 μM), >0 enhanced anti-cancer activity, about 0 neutral, <0 antagonist
# [14] = NCI-H292 cells, cholesterol-free media without statin, FDA drug library screen
# [15] = NCI-H292 cells, complete media, FDA drug library screen
# [16] = complete vs cholesterol-free media, >0 enhanced anti-cancer activity, about 0 neutral, <0 antagonist
# [17] = NCI-H292 cells, cholesterol-free media with simvastatin 0.04 μM, cell growth value in FDA drug screen
# [18] = NCI-H292 cells, complete media, cell growth value in FDA drug screen
# [19] = Complete minus Cholesterol-free, >0 enhanced anti-cancer activity, about 0 neutral, <0 antagonist
# [20] = NCI-H292 cells, FDA library drug in cholesterol-free media with simvastatin 0.04 μM
# [21] = NCI-H292 cells, FDA library drug in complete media
# [22] = NCI-H292 cells, cholesterol-free media without statin
# [23] = complete media vs cholesterol-free media + simvastatin (0.04 μM), […]
# [24] = complete media minus cholesterol-free media + simvastatin (0.04 μM), >0 enhanced anti-cancer activity, about 0 neutral, <0 antagonist
# [25] = complete vs cholesterol-free media, greater than 0 enhanced anti-cancer activity, about 0 neutral, below 0 antagonists
# [26] = Complete minus Cholesterol-free, […]
compound,measurement,setting,value
CC1=C(/C=C/C(C)=C/C=C/C(C)=C/C(=O)O)C(C)(C)CCC1 [Retinoic acid],Difference,[1]; [3],−0.66
same,Cholesterol-free,[1]; [4],1.248
same,Complete,[1]; [5],0.5841
same,Cholesterol-free media + simvastatin (0.04 μM),[2]; [6],0.9194
same,Complete Media,[2]; [7],1.253
same,Difference,[2]; [8],0.33
CCOC(=O)[C@H](CCc1ccccc1)N[C@@H](C)C(=O)N1[C@H](C(=O)O)C[C@H]2CCCC[C@@H]21 [Trandolapril],Difference,[1]; [9],−0.10
same,Cholesterol-free,[1]; [10],1.068
same,Complete,[1]; [7],0.9671
same,Cholesterol-free media + simvastatin (0.04 μM),[2]; [11],1.441
same,Complete Media,[2]; [12],1.221
same,Difference,[2]; [13],−0.22
O=C1OC(OC(=O)c2cccnc2Nc2cccc(C(F)(F)F)c2)c2ccccc21 (centres unmarked) [Talniflumate],Cholesterol-free,[1]; [14],0.679
same,Complete,[1]; [15],1.267
same,Difference,[1]; [16],0.59
same,Cholesterol-free media + simvastatin (0.04 μM),[2]; [11],1.554
same,Complete Media,[2]; [12],1.302
same,Difference,[2]; [13],−0.25
Nc1cc(F)ccc1NC(=O)c1ccc(CNC(=O)/C=C/c2cccnc2)cc1 [Tucidinostat],Difference,[1]; [3],−0.51
same,Cholesterol-free,[1]; [4],1.245
same,Complete,[1]; [5],0.7308
same,Cholesterol-free media + simvastatin (0.04 μM),[2]; [17],0.5739
same,Complete Media,[2]; [18],0.6176
same,Difference,[2]; [8],0.04
O.O.O.O.O=P([O-])(O)C(Cl)(Cl)P(=O)([O-])O.[Na+].[Na+] [Clodronate (disodium tetrahydrate)],Difference,[1]; [19],−0.05
same,Cholesterol-free,[1]; [14],1.08
same,Complete,[1]; [15],1.034
same,Cholesterol-free media + simvastatin (0.04 μM),[2]; [17],0.8439
same,Complete Media,[2]; [18],0.9326
same,Difference,[2]; [8],0.09
CO[C@H]1/C=C/O[C@@]2(C)Oc3c(C)c(O)c4c(O)c(c5c(nc6cc(C)ccn65)c4c3C2=O)NC(=O)/C(C)=C\C=C\[C@H](C)[C@H](O)[C@@H](C)[C@@H](O)[C@@H](C)[C@H](OC(C)=O)[C@@H]1C [Rifaximin],Cholesterol-free,[1]; [14],0.8156
same,Complete,[1]; [15],1.163
same,Difference,[1]; [16],0.35
same,Cholesterol-free media + simvastatin (0.04 μM),[2]; [6],0.8832
same,Complete Media,[2]; [7],0.7304
same,Difference,[2]; [13],−0.15
CCc1c(Cl)c(O)c(Cl)c(O)c1C(=O)O[C@H]1[C@H](O)[C@H](OC)[C@H](OC/C2=C\C=C\C[C@H](O)/C(C)=C/[C@H](CC)[C@@H](O[C@@H]3OC(C)(C)[C@@H](OC(=O)C(C)C)[C@H](O)[C@@H]3O)/C(C)=C/C(C)=C/C[C@@H]([C@@H](C)O)OC2=O)O[C@@H]1C [Fidaxomicin],Difference,[1]; [3],−0.71
same,Cholesterol-free,[1]; [4],1.405
same,Complete,[1]; [5],0.6951
same,Cholesterol-free media + simvastatin (0.04 μM),[2]; [20],1.494
same,Complete Media,[2]; [21],1.227
same,Difference,[2]; [13],−0.27
CCn1cc(C(=O)O)c(=O)c2ccc(C)nc21 [Nalidixic acid],Cholesterol-free,[1]; [22],1.332
same,Complete,"[1]; NCI-H292 cells, complete media",0.9692
same,Difference,"[1]; complete vs cholesterol-free media, […]",−0.36
same,Cholesterol-free media + simvastatin (0.04 μM),[2]; [11],1.203
same,Complete Media,[2]; [12],0.9667
same,Difference,[2]; [23],−0.24
CC(=O)Nc1cccc(-n2c(=O)n(C3CC3)c(=O)c3c(Nc4ccc(I)cc4F)n(C)c(=O)c(C)c32)c1 [Trametinib (DMSO solvate)],Difference,[1]; [19],0.00
same,Cholesterol-free,[1]; [14],0.2835
same,Complete,[1]; [15],0.2824
same,Cholesterol-free media + simvastatin (0.04 μM),[2]; [6],0.4848
same,Complete Media,[2]; [7],0.3787
same,Difference,[2]; [13],−0.11
C[C@@H]1CCO[C@H]2Cn3cc(C(=O)NCc4ccc(F)cc4F)c(=O)c(O)c3C(=O)N12 [Dolutegravir (sodium)],Difference,[1]; [19],−0.20
same,Cholesterol-free,[1]; [22],0.8373
same,Complete,"[1]; NCI-H292 cells, complete media",0.6354
same,Cholesterol-free media + simvastatin (0.04 μM),[2]; [17],0.4489
same,Complete Media,[2]; [18],0.5012
same,Difference,[2]; [8],0.05
C=C1CC[C@H](O)C/C1=C/C=C1\CCC[C@]2(C)[C@@H]([C@H](C)/C=C/[C@H](C)C(C)C)CC[C@@H]12 [Vitamin D2],Difference,[1]; [3],−0.62
same,Cholesterol-free,[1]; [4],1.409
same,Complete,[1]; [5],0.7927
same,Cholesterol-free media + simvastatin (0.04 μM),[2]; [6],1.05
same,Complete Media,[2]; [7],0.9687
same,Difference,[2]; [13],−0.08
CCN1CCN(C(=O)N[C@@H](C(=O)N[C@@H]2C(=O)N3[C@@H]2SC(C)(C)[C@@H]3C(=O)[O-])c2ccccc2)C(=O)C1=O.[Na+] [Piperacillin (sodium)],Difference,[1]; [9],−0.14
same,Cholesterol-free,[1]; [10],1.282
same,Complete,[1]; [7],1.138
same,Cholesterol-free media + simvastatin (0.04 μM),[2]; [6],2.325
same,Difference,[2]; [24],−1.15
NC(=O)N1c2ccccc2C=Cc2ccccc21 [Carbamazepine],Cholesterol-free,[1]; [22],1.302
same,Complete,"[1]; NCI-H292 cells, complete media",0.9337
same,Difference,[1]; [25],−0.37
same,Cholesterol-free media + simvastatin (0.04 μM),[2]; [11],1.226
same,Complete Media,[2]; [12],0.9955
same,Difference,[2]; [13],−0.23
Garenoxacin (Mesylate hydrate),Cholesterol-free,[1]; [22],1.769
same,Complete,"[1]; NCI-H292 cells, complete media",1.3
same,Difference,[1]; [25],−0.47
same,Cholesterol-free media + simvastatin (0.04 μM),[2]; [11],1.436
same,Complete Media,[2]; [12],1.268
same,Difference,[2]; [13],−0.17
CC(=O)/N=c1/sc(S(N)(=O)=O)nn1C [Methazolamide],Difference,[1]; [3],−0.57
same,Cholesterol-free,[1]; [4],1.478
same,Complete,[1]; [5],0.9069
same,Cholesterol-free media + simvastatin (0.04 μM),[2]; [11],1.441
same,Complete Media,[2]; [12],1.241
same,Difference,[2]; [13],−0.20
Cl.NCC(=O)CCC(=O)O [5-Aminolevulinic acid (hydrochloride)],Difference,[1]; [26],−0.75
same,Cholesterol-free,[1]; [4],1.604
same,Complete,[1]; [5],0.8558
same,Cholesterol-free media + simvastatin (0.04 μM),[2]; [6],1.091
same,Complete Media,[2]; [7],1.01
same,Difference,[2]; [23],−0.08
C#CCN[C@H]1CCc2ccccc21 [(S)-Rasagiline],Difference,[1]; [19],0.05
same,Cholesterol-free,[1]; [14],1.001
same,Complete,[1]; [15],1.048
same,Cholesterol-free media + simvastatin (0.04 μM),[2]; [20],1.283
same,Complete Media,[2]; [21],0.8996
same,Difference,[2]; [13],−0.38
CN(C)CCc1c[nH]c2ccc(Cn3cncn3)cc12.O=C(O)c1ccccc1 [Rizatriptan (benzoate)],Difference,[1]; [26],0.02
same,Cholesterol-free,[1]; [14],0.4266
same,Complete,[1]; [15],0.447
same,Cholesterol-free media + simvastatin (0.04 μM),[2]; [6],1.054
same,Complete Media,[2]; [7],0.9799
same,Difference,[2]; [23],−0.07
Miconazole (nitrate),Cholesterol-free,[1],0.9239
same,Complete,[1],0.8136
same,Difference,[1],−0.11
same,Cholesterol-free media + simvastatin (0.04 μM),[2],0.4137
same,Complete Media,[2],0.8009
same,Difference,[2],0.39
Cc1ccccc1OCC(O)CO (centres unmarked) [Mephenesin],Cholesterol-free,[1]; [14],0.8638
same,Complete,[1]; [15],1.459
same,Difference,[1]; [16],0.60
same,Cholesterol-free media + simvastatin (0.04 μM),[2]; [6],1.225
same,Complete Media,[2]; [7],1.535
same,Difference,[2]; [8],0.31
C=C[C@H]1C[N@@]2CC[C@H]1C[C@@H]2[C@@H](O)c1ccnc2ccc(OC)cc12 [Quinidine hydrochloride monohydrate],Difference,[1]; [19],0.01
same,Cholesterol-free,[1]; [14],1.211
same,Complete,[1]; [15],1.222
same,Cholesterol-free media + simvastatin (0.04 μM),"[2]; NCI-H292 cells, cholesterol-free media with simvastatin 0.04 μM, FDA drug library screen (TABLE 2)",1.46
same,Complete Media,"[2]; NCI-H292 cells, complete media, FDA drug library screen (TABLE 2)",1.402
same,Difference,[2]; [24],−0.06
